Experimental data reported in patent publication US6737383B1, “Herbicidal oxadiazolidines” (priority 1999, dated 2004).

Key:
bamyardgrass = assay: Test B flood test barnyardgrass; type: in vivo, Echinochloa crus-galli
How it was run: (§1)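 Flood test on plants grown to the 2-leaf stage; treated plants kept in greenhouse twelve to sixteen days, then visually rated against controls on a 0 (no effect) to 10 (complete control) scale.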

wheat = assay: Test B pre/postemergence wheat; type: in vivo, Triticum aestivum
How it was run: (§2)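 Herbicidal effect was estimated by eye on a ten-point control scale after plants spent twelve to sixteen days in a greenhouse following soil or foliar treatment. Foliar sprays targeted plants at one to four leaves; all doses were formulated in a non-phytotoxic solvent with surfactant.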

sugar beet = assay: Test B pre/postemergence sugar beet; type: in vivo, Beta vulgaris
How it was run: as §2

pigweed = assay: Test B pre/postemergence pigweed; type: in vivo, Amaranthus retroflexus
How it was run: as §2

duck salad = assay: Test B flood test duck salad; type: in vivo, Heteranthera limosa
How it was run: as §1

purple nutsedge = assay: Test B pre/postemergence purple nutsedge; type: in vivo, Cyperus rotundus
How it was run: as §2

crabgrass = assay: Test B pre/postemergence crabgrass; type: in vivo, Digitaria sanguinalis
How it was run: as §2

rape = assay: Test B pre/postemergence rape; type: in vivo, Brassica napus
How it was run: as §2

corn = assay: Test B pre/postemergence corn; type: in vivo, Zea mays
How it was run: as §2

blackgrass = assay: Test B pre/postemergence blackgrass; type: in vivo, Alopecurus myosuroides
How it was run: as §2

wild oat = assay: Test B pre/postemergence wild oat; type: in vivo, Avena fatua
How it was run: as §2

surinam grass = assay: Test B pre/postemergence surinam grass; type: in vivo, Brachiaria decumbens
How it was run: as §2

giant foxtail = assay: Test B pre/postemergence giant foxtail; type: in vivo, Setaria faberii
How it was run: as §2

morningglory = assay: Test B pre/postemergence morningglory; type: in vivo, Ipomoea hederacea
How it was run: as §2

soybean = assay: Test B pre/postemergence soybean; type: in vivo, Glycine max
How it was run: as §2

rice = assay: Test B flood test rice; type: in vivo, Oryza sativa; details: for Rice plant response rating: Postemergence section (flood test species)
How it was run: as §1

cocklebur = assay: Test B pre/postemergence cocklebur; type: in vivo, Xanthium strumarium
How it was run: as §2

smallflower flatsedge = assay: Test B flood test smallflower flatsedge; type: in vivo, Cyperus difformis; details: for S. Flatsedge plant response rating: Postemergence section (flood test species)
How it was run: as §1

velvetleaf = assay: Test B pre/postemergence velvetleaf; type: in vivo, Abutilon theophrasti
How it was run: as §2

[1] = Postemergence section (flood test species), Rate 500 g/ha, scale of 0 to 10 where 0 is no effect and 10 is complete control
[2] = Rate 62 g/ha, Postemergence (flood test species), scale of 0 to 10 where 0 is no effect and 10 is complete control
[3] = Rate 125 g/ha, Postemergence section (flood test species), scale 0 to 10, 0 is no effect, 10 is complete control
[4] = flood test species, listed under Postemergence, Rate 250 g/ha, scale 0 to 10, 0 is no effect, 10 is complete control
[5] = Postemergence, Rate 500 g/ha, scale of 0 to 10 where 0 is no effect and 10 is complete control
[6] = Preemergence, Rate 62 g/ha, scale 0 to 10 (0 no effect, 10 complete control)
[7] = Preemergence, Rate 125 g/ha, scale of 0 to 10 where 0 is no effect and 10 is complete control
[8] = Preemergence, Rate 250 g/ha, scale 0 to 10, 0 is no effect, 10 is complete control
[9] = Preemergence, Rate 500 g/ha, scale 0 to 10, 0 is no effect, 10 is complete control
[10] = Rate 125 g/ha, Postemergence, scale 0 to 10, 0 is no effect, 10 is complete control
[11] = Postemergence, Rate 250 g/ha, scale 0 to 10, 0 is no effect, 10 is complete control
[12] = Rate 62 g/ha, Postemergence, scale of 0 to 10 where 0 is no effect and 10 is complete control
[13] = Preemergence, Rate 250 g/ha, scale of 0 to 10 where 0 is no effect and 10 is complete control
[14] = Rate 500 g/ha, scale of 0 to 10 where 0 is no effect and 10 is complete control
[15] = Rate 125 g/ha, scale 0 to 10, 0 is no effect, 10 is complete control

CC(C)N(C(=O)n1oc(=O)n(CCl)c1=O)c1ccccc1 [Compound 423]
8: Morningglory plant response rating (morningglory; [5])
0: Barnyardgrass plant response rating (bamyardgrass; [1]) | Barnyardgrass plant response rating (bamyardgrass; [2]) | Barnyardgrass plant response rating (bamyardgrass; [3]) | Plant response rating, Barnyardgrass (bamyardgrass; [4]) | Wheat plant response rating (wheat; [5]) | Plant response rating, Wheat (wheat; [6]) | Plant response rating, Wheat (wheat; [7]) | Wheat plant response rating (wheat; [8]) | Wheat plant response rating (wheat; [9]) | Wheat plant response rating (wheat; [10]) | Plant response rating, Sugarbeets (sugar beet; [11]) | Sugarbeets plant response rating (sugar beet; [5]) | Plant response rating, Sugarbeets (sugar beet; [6]) | Plant response rating, Sugarbeets (sugar beet; [7]) | Sugarbeets plant response rating (sugar beet; [8]) | Sugarbeets plant response rating (sugar beet; [9]) | Sugarbeets plant response rating (sugar beet; [10]) | Plant response rating, Redroot pigweed (pigweed; [11]) | Redroot pigweed plant response rating (pigweed; [5]) | Plant response rating, Redroot pigweed (pigweed; [6]) | Plant response rating, Redroot pigweed (pigweed; [7]) | Redroot pigweed plant response rating (pigweed; [8]) | Redroot pigweed plant response rating (pigweed; [9]) | Redroot pigweed plant response rating (pigweed; [10]) | Ducksalad plant response rating (duck salad; [1]) | Ducksalad plant response rating (duck salad; [2]) | Ducksalad plant response rating (duck salad; [3]) | Plant response rating, Ducksalad (duck salad; [4]) | Plant response rating, Nutsedge (purple nutsedge; [11]) | Nutsedge plant response rating (purple nutsedge; [5]) | Plant response rating, Nutsedge (purple nutsedge; [6]) | Plant response rating, Nutsedge (purple nutsedge; [7]) | Nutsedge plant response rating (purple nutsedge; [8]) | Nutsedge plant response rating (purple nutsedge; [9]) | Nutsedge plant response rating (purple nutsedge; [10]) | Plant response rating, Crabgrass (crabgrass; [11]) | Plant response rating, Crabgrass (crabgrass; [6]) | Plant response rating, Crabgrass (crabgrass; [7]) | Crabgrass plant response rating (crabgrass; [12]) | Crabgrass plant response rating (crabgrass; [10]) | Plant response rating, Rape (rape; [11]) | Rape plant response rating (rape; [5]) | Plant response rating, Rape (rape; [6]) | Plant response rating, Rape (rape; [7]) | Rape plant response rating (rape; [8]) | Rape plant response rating (rape; [9]) | Rape plant response rating (rape; [10]) | Plant response rating, Corn (corn; [11]) | Corn plant response rating (corn; [5]) | Plant response rating, Corn (corn; [6]) | Plant response rating, Corn (corn; [7]) | Corn plant response rating (corn; [8]) | Corn plant response rating (corn; [9]) | Corn plant response rating (corn; [12]) | Corn plant response rating (corn; [10]) | Plant response rating, Blackgrass (blackgrass; [11]) | Plant response rating, Blackgrass (blackgrass; [6]) | Plant response rating, Blackgrass (blackgrass; [7]) | Blackgrass plant response rating (blackgrass; [13]) | Blackgrass plant response rating (blackgrass; [9]) | Blackgrass plant response rating (blackgrass; [12]) | Blackgrass plant response rating (blackgrass; [10]) | Wild oats plant response rating (wild oat; [5]) | Plant response rating, Wild oats (wild oat; [6]) | Plant response rating, Wild oats (wild oat; [7]) | Wild oats plant response rating (wild oat; [8]) | Wild oats plant response rating (wild oat; [9]) | Wild oats plant response rating (wild oat; [10]) | Plant response rating, B. signalgrass (surinam grass; [11]) | B. signalgrass plant response rating (surinam grass; [5]) | Plant response rating, B. signalgrass (surinam grass; [6]) | Plant response rating, B. signalgrass (surinam grass; [7]) | B. signalgrass plant response rating (surinam grass; [13]) | B. signalgrass plant response rating (surinam grass; Preemergence, Rate 500 g/ha, scale of 0 to 10 where 0 is no effect and 10 is complete control) | B. signalgrass plant response rating (surinam grass; [12]) | B. signalgrass plant response rating (surinam grass; [10]) | Plant response rating, Giant foxtail (giant foxtail; [11]) | Plant response rating, Giant foxtail (giant foxtail; [6]) | Plant response rating, Giant foxtail (giant foxtail; [7]) | Giant foxtail plant response rating (giant foxtail; [12]) | Giant foxtail plant response rating (giant foxtail; [10]) | Plant response rating, Morningglory (morningglory; [6]) | Plant response rating, Morningglory (morningglory; [7]) | Morningglory plant response rating (morningglory; [8]) | Morningglory plant response rating (morningglory; [9]) | Plant response rating, Soybean (soybean; [6]) | Plant response rating, Soybean (soybean; [7]) | Soybean plant response rating (soybean; [8]) | Soybean plant response rating (soybean; [9]) | Rice plant response rating (rice; [14]) | Rice plant response rating (rice; [15]) | Plant response rating, Rice (rice; [4]) | Plant response rating, Cocklebur (cocklebur; [11]) | Cocklebur plant response rating (cocklebur; [5]) | Plant response rating, Cocklebur (cocklebur; [6]) | Plant response rating, Cocklebur (cocklebur; [7]) | Cocklebur plant response rating (cocklebur; [8]) | Cocklebur plant response rating (cocklebur; [9]) | Cocklebur plant response rating (cocklebur; [12]) | Cocklebur plant response rating (cocklebur; [10]) | S. Flatsedge plant response rating (smallflower flatsedge; [14]) | S. Flatsedge plant response rating (smallflower flatsedge; [15]) | Plant response rating, S. Flatsedge (smallflower flatsedge; [4]) | Plant response rating, Velvetleaf (velvetleaf; [11]) | Velvetleaf plant response rating (velvetleaf; [5]) | Plant response rating, Velvetleaf (velvetleaf; [6]) | Plant response rating, Velvetleaf (velvetleaf; [7]) | Velvetleaf plant response rating (velvetleaf; [8]) | Velvetleaf plant response rating (velvetleaf; [9]) | Velvetleaf plant response rating (velvetleaf; [10])
2: Crabgrass plant response rating (crabgrass; [9]) | Blackgrass plant response rating (blackgrass; [5]) | Giant foxtail plant response rating (giant foxtail; [5]) | Morningglory plant response rating (morningglory; [10]) | Plant response rating, Soybean (soybean; [11]) | Soybean plant response rating (soybean; [5]) | Soybean plant response rating (soybean; [10])
4: Giant foxtail plant response rating (giant foxtail; [9])
3: Giant foxtail plant response rating (giant foxtail; [8])
1: Crabgrass plant response rating (crabgrass; [5])
